Results as given in PubChem BioAssay (NCI).
Where “and” joins values, the source holds several entries; their conditions need not be identical. Equal values may be shown once.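 Assay format: 96-well plates, 48-hour exposure. At the GI50, growth is halved. Definition used: TGI = concentration required for complete inhibition of growth.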

Key:
Test in all cases: inhibition of tumour cell growth, NCI panel, 48 h
HCT-15 colon = test system: HCT-15 colon
EKVX NSCLC = test system: EKVX NSCLC
CCRF-CEM leukemia = test system: CCRF-CEM leukemia
OVCAR-8 ovarian = test system: OVCAR-8 ovarian
K-562 leukemia = test system: K-562 leukemia
SN12C renal = test system: SN12C renal
OVCAR-3 ovarian = test system: OVCAR-3 ovarian
A549 NSCLC = test system: A549 NSCLC
UACC-257 melanoma = test system: UACC-257 melanoma
UO-31 renal = test system: UO-31 renal

Compound | GI50 (HCT-15 colon) | TGI (HCT-15 colon) | GI50 (EKVX NSCLC) | TGI (EKVX NSCLC) | GI50 (CCRF-CEM leukemia) | TGI (CCRF-CEM leukemia) | GI50 (OVCAR-8 ovarian) | TGI (OVCAR-8 ovarian) | GI50 (K-562 leukemia) | TGI (K-562 leukemia) | GI50 (SN12C renal) | TGI (SN12C renal) | GI50 (OVCAR-3 ovarian) | GI50 (A549 NSCLC) | TGI (A549 NSCLC) | GI50 (UACC-257 melanoma) | TGI (UACC-257 melanoma) | GI50 (UO-31 renal) | TGI (UO-31 renal) | TGI (OVCAR-3 ovarian)
CCOC(=O)[C@@H](C)C[C@H](Cc1ccccc1)NC(=O)c1csc([C@@H](C[C@H](C(C)C)N(C)C(=O)[C@@H](NC(=O)[C@H]2C[C@H](O)CCN2C)C(C)C)OC(C)=O)n1 | 0.149 µM | > 16.7 µM | 0.05 µM | > 16.7 µM | 0.00534 µM | > 16.7 µM | 0.0166 µM | > 16.7 µM | 0.00252 µM | > 16.7 µM | 0.00936 µM | > 16.7 µM | < 0.00167 µM | 0.0356 µM | > 16.7 µM | > 16.7 µM | > 16.7 µM | 0.647 µM | > 16.7 µM | 
C=C(CN1CCN(c2ccccc2C(F)(F)F)CC1)c1ccc(C(=O)Nc2ccccc2N)cc1 | 4.88 µM | > 100 µM | 6.7 µM | > 100 µM | 0.0728 µM | 0.546 µM | 3.84 µM | > 100 µM | 1.54 µM | > 25.8 µM | 6.43 µM | 23.9 µM | 5.92 µM | 4.17 µM | 33.8 µM | 4.66 µM | > 62.6 µM | 1 µM | > 60.3 µM | 38.3 µM
CCOC(=O)Nc1ccc2c(c1)N(C(=O)CCN(CC)CC)c1ccccc1S2 | 35.7 µM | > 79.5 µM and 99.4 µM | 74.2 µM | 141 µM | 17 µM | > 91.2 µM and 66.9 µM | 1.51 µM | 2.5 µM | 19.7 µM | > 81.8 µM | 24.3 µM | > 76.8 µM and 85.3 µM | 42.3 µM | 58.3 µM | 125 µM | 12.4 µM | 32.3 µM and 35.4 µM |  | > 89.5 µM | > 78.9 µM and 107 µM
CC1(C)OC2C(CO)OC(n3ccc(N)nc3=O)C2O1 (stereo not drawn) |  | > 100 µM |  | > 100 µM |  | > 100 µM |  | > 100 µM |  | > 100 µM |  | > 100 µM |  |  | > 100 µM |  | > 100 µM |  | > 100 µM | > 100 µM
Cc1cc2c(cc1C)[n+](=O)c(C(=O)CC(=O)C(=O)Nc1ccccc1C(C)C)c(C)n2[O-] |  | > 100 µM |  | > 100 µM |  | > 100 µM |  | > 100 µM |  | > 100 µM |  | > 100 µM |  |  | > 100 µM |  | 5.82 µM |  | > 100 µM | > 100 µM
COc1cc2c(cc1OCCCCn1c(-c3cccs3)nc3ccccc31)N=C[C@@H]1CCCN1C2=O | 3.19 µM | 10.5 µM | 3.36 µM | 11.1 µM | 0.247 µM | 1.37 µM | 2.58 µM | > 100 µM | 15.5 µM | > 100 µM | 2.5 µM | 8.65 µM | 1.72 µM | 3.22 µM | > 100 µM | 2.54 µM | 5.9 µM | 1.23 µM | 5.34 µM | 4.29 µM
NC1=NC2=C(CCCC2)C(c2cccs2)S1 (stereo not drawn) |  | > 100 µM |  | > 100 µM |  | > 100 µM |  | > 100 µM |  | > 100 µM |  | > 100 µM |  |  | > 100 µM |  | > 100 µM |  | 74.3 µM | > 100 µM
c1ccc(-c2cn(-c3ccccc3)c(-c3ccccc3)n2)cc1 | 3.84 µM | 17.8 µM | 15.1 µM | 28.9 µM | 2.75 µM | 7.06 µM | 7.89 µM | 20.4 µM | 3.54 µM | 18.7 µM | 15.4 µM | 30.6 µM | 6.38 µM | 13.2 µM | 26.6 µM | 13.4 µM | 26.1 µM | 11 µM | 22.9 µM | 18.6 µM
CN(C)c1ccc(/C=c2\sc3nnc(-c4cccnc4)n3c2=O)cc1 |  | > 100 µM |  | > 100 µM |  | > 100 µM |  | > 100 µM |  | > 100 µM |  | > 100 µM |  |  | > 100 µM |  | > 100 µM |  | > 100 µM | > 100 µM
CCCOc1ccc(/C=N/Nc2cc(C)nc3ccc(Cl)cc23)cc1 | 1.52 µM | 2.94 µM | 1.64 µM | 3.05 µM | 1.78 µM | 4.08 µM | 2.31 µM | 4.53 µM | 1.48 µM | 3.13 µM | 1.82 µM | 3.31 µM | 2.13 µM | 1.72 µM | 3.35 µM | 1.79 µM | 3.32 µM | 1.56 µM | 2.91 µM | 3.7 µM
O=C(c1cccs1)c1nc2cc(Cl)ccc2[n+]([O-])c1C(F)(F)F | > 100 µM | > 100 µM | 51.8 µM | > 100 µM | > 100 µM | > 100 µM | > 100 µM | > 100 µM | > 100 µM | > 100 µM | > 100 µM | > 100 µM | > 100 µM | 54.8 µM | > 100 µM | 49.9 µM | > 100 µM | > 100 µM | > 100 µM | > 100 µM
OCCCc1cnco1 |  | > 100 µM |  | > 100 µM |  | > 100 µM |  | > 100 µM |  | > 100 µM |  | > 100 µM |  |  | > 100 µM |  | > 100 µM |  | > 100 µM | > 100 µM
COc1ccc(C2CC(c3ccc4ccccc4c3)=NN2c2nc(O)c(C3=c4cc(OC)ccc4=NC3=O)s2)cc1 (stereo not drawn) | 0.0973 µM | 1.09 µM | 0.0898 µM | 0.355 µM | 0.284 µM | > 43.3 µM | 0.0646 µM | 1.26 µM | 0.0662 µM | > 32.3 µM | 0.166 µM | 0.464 µM | 0.0569 µM | 0.0612 µM | 0.223 µM | 0.718 µM | 6.14 µM | 0.202 µM | 0.414 µM | 0.17 µM
Cc1cc(=O)oc2cc(OC(=O)Nc3ccccc3)ccc12 |  | > 100 µM |  | > 100 µM |  | 74.2 µM |  | > 100 µM |  | > 100 µM |  | > 100 µM |  |  | > 100 µM |  | > 100 µM |  | > 100 µM | > 100 µM
